According to US9072800B2, “Hand sanitizer” (TRISTEL PLC, priority 2009, dated 2015):

Experiment: Flash point by Tag Closed Cup
Format: physicochemical
Source text: MMB also has the benefit over ethanol that it is substantially non-flammable. […] MMB is considered to be extremely safe, having no R and S phrases and Occupational Exposure Limit.

flash point: 68 °C
SMILES: COC(C)(C)CCO [MMB, 3-methoxy-3-methylbutan-1-ol]
